Data reported in patent publication US20260207563A1, “UREA COMPOUNDS AS ACTIVATORS OF POTASSIUM CHANNELS KV7.2/7.3 USEFUL IN THE TREATMENT OF CNS AND PNS DISORDERS” (ANGELINI PHARMA S.P.A., priority 2022, published 2026).

Tests used:
Format in all cases: cell-based
[1] = molecular target: T1, heteromeric KV7.3/KV7.5 channel (KCNQ3, KCNQ5) (Homo sapiens, UniProt O43525+Q9NR82); experiment: Automated patch-clamp counter-screening against KV7.3/KV7.5 channel; conditions: HEK293 cells expressing Kv7.3/KV7.5; class by maximal shift in the Vhalf at 30 μM
T1 construct: host or cells: HEK293
Procedure, shortened: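 Potency came from a 4-parameter logistic fit of mean voltage-of-half-activation shifts, yielding EC50 and maximal shift; selectivity was judged on the shift at 30 μM. Compounds were applied at ten 3-fold dilutions from 30 μM in quadruplicate to HEK293 cells stably carrying Kv7.3 with tet-inducible Kv7.5.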

[2] = molecular target: T2, homomeric KV7.4 channel (KCNQ4) (Homo sapiens, UniProt P56696); experiment: Automated patch-clamp (Qube) counter-screening assay against KV7.4 channel; conditions: CHO-K1 cells expressing KV7.4; class by maximal shift in the Vhalf at 30 μM
T2 construct: host or cells: CHO-K1
Procedure, shortened: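 EC50 and maximal shift in half-activation voltage come from 4-parameter logistic fits of mean Vhalf shifts. The series had ten 1-in-3 concentrations, highest 30 μM, each tested in quadruplicate. Recordings used automated Qube patch clamp on a stable CHO-K1 line expressing KCNQ4, and selectivity was judged from the 30 μM Vhalf shift.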

[3] = molecular target: T3, heteromeric KV7.2/KV7.3 channels (KCNQ2, KCNQ3) (Homo sapiens, UniProt O43525+O43526); experiment: Automated patch-clamp (Sophion Qube 384) potency assay against KV7.2/KV7.3 channels; conditions: CHO-K1/Kv7.2/Kv7.3 cells; for EC50: EC50 from concentration-response of shift in Vhalf, 10 concentrations up to 30 μM, read-out: Kv7.2/7.3 EC50; for Kv7.2/7.3 ΔV1/2: maximal shift in the Vhalf from the top of the curve
T3 construct: expressed in transfected cells; host or cells: CHO-K1
Procedure, shortened: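 Activator potency: EC50 from 4-parameter logistic fit of mean Vhalf shift across ten 1-in-3 dilutions starting at 30 μM (n=4), with DMSO (typically 0.3%) control. Currents recorded by leak-subtracted whole-cell clamp of stable CHO-K1 KV7.2/KV7.3 cells, held at −80 mV, stepped −100 to +20 mV then 0 mV tails.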

EC50 [3]	Kv7.2/7.3 ΔV1/2 [3]	Compound	Kv7.3/7.5 selectivity criteria [1]	Kv7.4 selectivity criteria [2]
1.58 µM	55.93 mV	O=C(NCc1ccnc(OCC(F)(F)F)c1)NC1CCC(F)(F)CC1 [Compound 71, 1-(4,4-Difluorocyclohexyl)-3-((2-(2,2,2-trifluoroethoxy)pyridin-4-yl)methyl)urea]	B (Non-selective compounds showed Kv7.4 and/or Kv7.3/7.5 ΔV1/2 higher than 15 mV (letter B in table 3))	B (Non-selective compounds showed Kv7.4 and/or Kv7.3/7.5 ΔV1/2 higher than 15 mV (letter B in table 3))
2.47 µM	26.35 mV	CC(C)(C)[C@@H](O)CNC(=O)NCc1ccnc(OCC(F)(F)C(F)(F)F)c1 [Compound 73, (R)-1-(2-Hydroxy-3,3-dimethylbutyl)-3-((2-(2,2,3,3,3-pentafluoropropoxy)pyridin-4-yl)methyl)urea]	A (Selective compounds showed Kv7.4 and/or Kv7.3/7.5 ΔV1/2 equal to or lower than 15 mV (letter A in table 3))	A (Selective compounds showed Kv7.4 and/or Kv7.3/7.5 ΔV1/2 equal to or lower than 15 mV (letter A in table 3))
1.78 µM	26.68 mV	O=C(NCCC1(C(F)(F)F)CC1)NCc1ccnc(OCCC(F)(F)F)c1 [Compound 74, 1-(2-(1-(Trifluoromethyl)cyclopropyl)ethyl)-3-((2-(3,3,3-trifluoropropoxy)pyridin-4-yl)methyl)urea]	A (Selective compounds showed Kv7.4 and/or Kv7.3/7.5 ΔV1/2 equal to or lower than 15 mV (letter A in table 3))	A (Selective compounds showed Kv7.4 and/or Kv7.3/7.5 ΔV1/2 equal to or lower than 15 mV (letter A in table 3))
0.508 µM	25.35 mV	O=C(NCc1ccnc(OCC(F)(F)F)c1)NCc1ccccc1Cl [Compound 75, 1-(2-Chlorobenzyl)-3-((2-(2,2,2-trifluoroethoxy)pyridin-4-yl)methyl)urea]	A (Selective compounds showed Kv7.4 and/or Kv7.3/7.5 ΔV1/2 equal to or lower than 15 mV (letter A in table 3))	B (Non-selective compounds showed Kv7.4 and/or Kv7.3/7.5 ΔV1/2 higher than 15 mV (letter B in table 3))
0.549 µM	32.37 mV	O=C(NCc1ccnc(OCC(F)(F)F)c1)Nc1cc(F)cc(Cl)c1 [Compound 77, 1-(3-Chloro-5-fluorophenyl)-3-((2-(2,2,2-trifluoroethoxy)pyridin-4-yl)methyl)urea]	A (Selective compounds showed Kv7.4 and/or Kv7.3/7.5 ΔV1/2 equal to or lower than 15 mV (letter A in table 3))	B (Non-selective compounds showed Kv7.4 and/or Kv7.3/7.5 ΔV1/2 higher than 15 mV (letter B in table 3))
11.7 µM	19.21 mV	CC(C)(C)[C@@H](O)CNC(=O)NCc1ccnc(OCCC(F)(F)F)c1 [Compound 78, (R)-1-(2-Hydroxy-3,3-dimethylbutyl)-3-((2-(3,3,3-trifluoropropoxy)pyridin-4-yl)methyl)urea]	A (Selective compounds showed Kv7.4 and/or Kv7.3/7.5 ΔV1/2 equal to or lower than 15 mV (letter A in table 3))	A (Selective compounds showed Kv7.4 and/or Kv7.3/7.5 ΔV1/2 equal to or lower than 15 mV (letter A in table 3))

The remaining lines, values behind:

Compound	EC50 [3]	Kv7.2/7.3 ΔV1/2 [3]	Kv7.3/7.5 selectivity criteria [1]	Kv7.4 selectivity criteria [2]
O=C(NCc1ccnc(OCC(F)(F)F)c1)N[C@@H]1CCCC[C@@H]1O [Compound 62, 1-((1R,2S)-2-Hydroxycyclohexyl)-3-((2-(2,2,2-trifluoroethoxy)pyridin-4-yl)methyl) urea]	11.7 µM	16.94 mV	B (Non-selective compounds showed Kv7.4 and/or Kv7.3/7.5 ΔV1/2 higher than 15 mV (letter B in table 3))	A (Selective compounds showed Kv7.4 and/or Kv7.3/7.5 ΔV1/2 equal to or lower than 15 mV (letter A in table 3))
O=C(NCc1ccnc(OCC(F)(F)F)c1)N[C@H]1CCCC[C@@H]1O [Compound 63, 1-((1S,2S)-2-Hydroxycyclohexyl)-3-((2-(2,2,2-trifluoroethoxy)pyridin-4-yl)methyl)urea]	11.8 µM	33.01 mV	B (Non-selective compounds showed Kv7.4 and/or Kv7.3/7.5 ΔV1/2 higher than 15 mV (letter B in table 3))	B (Non-selective compounds showed Kv7.4 and/or Kv7.3/7.5 ΔV1/2 higher than 15 mV (letter B in table 3))
C[C@@H](NC(=O)NCCC1(C(F)(F)F)CC1)c1ccnc(OCC(F)(F)F)c1 [Compound 65, (R)-1-(1-(2-(2,2,2-Trifluoroethoxy)pyridin-4-yl)ethyl)-3-(2-(1-(trifluoromethyl)cyclopropyl)ethyl)urea]	0.152 µM	26.28 mV	A (Selective compounds showed Kv7.4 and/or Kv7.3/7.5 ΔV1/2 equal to or lower than 15 mV (letter A in table 3))	A (Selective compounds showed Kv7.4 and/or Kv7.3/7.5 ΔV1/2 equal to or lower than 15 mV (letter A in table 3))
C[C@H](NC(=O)NCCC1(C(F)(F)F)CC1)c1ccnc(OCC(F)(F)F)c1 [Compound 67, (S)-1-(1-(2-(2,2,2-Trifluoroethoxy)pyridin-4-yl)ethyl)-3-(2-(1-(trifluoromethyl)cyclopropyl)ethyl)urea]	5 µM	23.87 mV	A (Selective compounds showed Kv7.4 and/or Kv7.3/7.5 ΔV1/2 equal to or lower than 15 mV (letter A in table 3))	A (Selective compounds showed Kv7.4 and/or Kv7.3/7.5 ΔV1/2 equal to or lower than 15 mV (letter A in table 3))
CN(CC(F)(F)F)c1cc(CNC(=O)NCCC2(C(F)(F)F)CC2)ccn1 [Compound 68, 1-((2-(Methyl(2,2,2-trifluoroethyl)amino)pyridin-4-yl)methyl)-3-(2-(1-(trifluoromethyl)cyclopropyl)ethyl)urea]	4.73 µM	27.19 mV	A (Selective compounds showed Kv7.4 and/or Kv7.3/7.5 ΔV1/2 equal to or lower than 15 mV (letter A in table 3))	A (Selective compounds showed Kv7.4 and/or Kv7.3/7.5 ΔV1/2 equal to or lower than 15 mV (letter A in table 3))
O=C(NCCC1(C(F)(F)F)CC1)NCc1ccnc(C(F)(F)F)c1 [Compound 69, 1-(2-(1-(Trifluoromethyl)cyclopropyl)ethyl)-3-((2-(trifluoromethyl)pyridin-4-yl)methyl)urea]	4.28 µM	23.15 mV	A (Selective compounds showed Kv7.4 and/or Kv7.3/7.5 ΔV1/2 equal to or lower than 15 mV (letter A in table 3))	A (Selective compounds showed Kv7.4 and/or Kv7.3/7.5 ΔV1/2 equal to or lower than 15 mV (letter A in table 3))
O=C(NCc1ccnc(OCC(F)(F)F)c1)NCC1CCC(F)(F)CC1 [Compound 70, 1-((4,4-Difluorocyclohexyl)methyl)-3-((2-(2,2,2-trifluoroethoxy)pyridin-4-yl)methyl)urea]	0.975 µM	26.04 mV	A (Selective compounds showed Kv7.4 and/or Kv7.3/7.5 ΔV1/2 equal to or lower than 15 mV (letter A in table 3))	A (Selective compounds showed Kv7.4 and/or Kv7.3/7.5 ΔV1/2 equal to or lower than 15 mV (letter A in table 3))
